Experimental findings from US12054495B2, “Substituted macrocyclic compounds and related methods of treatment” (Alkermes, Inc., priority 2019, dated 2024) are described below.

The conditions of data set [1]: amide bond.
For data set [2] the following is noted: amide bond, HATU/DIEA.
The test system of another data set is Sprague-Dawley rats. Description: Assessment of wake promotion in Sprague-Dawley rats (EEG/EMG). Type of data set: in vivo. The settings on record: Rattus norvegicus; PO, 3 mpk, male Sprague-Dawley rats, dosed at ZT5, 6-hour post-dose period; read-out: Mean cortical activation time (% vehicle treatment). As to the method: Wake promotion was assessed using electroencephalography (EEG) and electromyography (EMG) in adult male Sprague-Dawley rats (350-600 g). All rats (Charles River Laboratories, Raleigh, NC, USA) were intraperitoneally implanted with telemetry devices (F50-EEE, Data Sciences International Inc., M/N, USA) under isoflurane anesthesia. For EEG, stainless steel screws were implanted over frontal cortex and parietal cortex, and reference screws were placed over cerebellum. Additionally, an electrode was placed in neck muscle for EMG. Rats were given carprofen post-surgery and underwent a 7 to 10-day recovery period. Rats habituated to the experimental room for 7 days and were maintained on a 12-hour light-dark cycle.
EEG and EMG data were recorded using the DSI telemetry system and Ponemah software (Data Sciences International Inc., MN, USA). Sleep-wake stages were scored both manually and with Somnivore, a supervised machine learning software platform, in 10 second epocs. Records were visually inspected as needed post-processing.
All test compounds were dissolved in 5% DMSO and suspended in 95% saline with 0.5% methylcellulose and 0.5% tween. […] Unless otherwise indicated, all compounds were dosed orally. Recordings for each rat were initiated immediately after dosing and lasted for 6 hours post-dose.
Two key endpoints include wakefulness time and cortical activation time. Wakefulness time is derived from the sleep-wake stage analysis. Cortical activation time is based on the duration in which frontal gamma oscillatory activity (30-100 Hz), a key feature of wakefulness, was elevated relative to a pre-treatment baseline. Mean cortical activation time was computed relative to vehicle treatment for the 6-hour post-dose period.

The subject of another data set is MDR1. Briefly: MDCK-MDR1 permeability assay. Type of data set: in vitro ADME. The settings on record: dog; for Papp A→B at 2 h, 3 μM: MDCK-MDR1, MDCK-MDR1 cells, apical to basolateral, 3 μM test compound, 2 hours at 37 degrees C; for efflux ratio at 2 h, 3 μM: MDCK-MDR1, Papp (basolateral to apical) divided by Papp (apical to basolateral), MDCK-MDR1 cells, read-out: Efflux ratio (ER). As for the experimental part: The bidirectional permeability (Apical to Basal and Basal to Apical directions) of test compounds in MDCK-MIDR1 cells were evaluated using MDCK-MIDR1 cells seeded in Solvo PreadyPort™ MIDCK 96-well plate. Once the plate was received from ReadyCell (Barcelona, Spain), it was treated as per PreadyPort™ user's manual.
For the Apical to Basolateral (A→B) permeability, 80 μL of test compound (3 μM) co-dosed with LY (Lucifer Yellow) (100 μM) in HBSS (Hank's Balanced Salt Solution) assay buffer was added to the donor side (A) while 250 μL of HBSS buffer was added to the receiver side (B). For the Basolateral to Apical (B→A) permeability, 255 μL of test compound (3 μM) in HBSS assay buffer was added to the donor side (B) while 75 μL of HBSS buffer containing LY (100 μM) was added to the receiver side (A).
The plate was placed in an incubator set at 37 degrees C. After 10 minutes of pre-warming, 5 μL aliquot was taken from donor compartment and set aside as the dosing solution. The MDCK-MDR1 incubation plate was placed back into the incubator for 2 hours of incubation at 37 degrees C. After 2 hours of incubation, 25 μL and 5 μL aliquots were removed from the receiver and donor sides, respectively. To the 5 μL aliquots taken from the donor sides (before and after a 2-hour incubation) were diluted with 20 μL of the HBSS buffer. All samples were mixed with 150 μL with acetonitrile containing internal standard (IS) and 200 μL water, and analyzed by LC-MS/MS.
The apparent permeability (Papp) was calculated using the following formula: Papp=dQ/dt×1/A×C0 where: • dQ/dt: amount of translocated material over incubation time (nmol/s) • A: area of insert (0.14 cm^2 for PreadyPort™ MDR1-96) • C0: initial concentration of product applied in apical (A→B) or basal (B→A) compartment (nmol/mL)
The efflux ratio (ER) was measured by dividing the Papp (basolateral to apical direction) by Papp (apical to basolateral direction). It is a general measure of the involvement of active processes. An ER>2 is considered positive for active transport.
The data reported in Table 3 were obtained according to the MDCK-MIDR1 permeability assay described above.

A short description of data set [3]: Hepatocytes stability assay (human hepatocytes). The settings on record: both sexes, cryopreserved hepatocytes, 1 μM test compound, 1×10^6 cell/mL, 37 degrees C, read-out: CLint (μL/min/million cells). Type of data set: in vitro ADME. The method, boiled down: (§1)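 Cryopreserved pooled (50 donors, mixed gender) human hepatocytes at 1×10^6 cells/mL in Krebs-Henseleit buffer with 1 μM compound (0.1% DMSO), 37 degrees C, sampled 0–240 min. Parent depletion by LC-MS/MS; first-order fit gave T1/2 and CLint, scaled to hepatic clearance via well-stirred model (fu assumed 1); extraction ratio = CL,hep/liver blood flow.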

The subject of another data set is human hepatocytes. Description: Hepatocytes stability assay (human hepatocytes). Type of data set: in vitro ADME. The note with it: scaled hepatic clearance divided by liver blood flow, fu assumed unity. In a few lines: as §1

By Papp A→B is commonly meant the apparent permeability from the apical to the basolateral side of a cell layer. High values mean ready permeation, low ones poor permeation.

Where two headings read alike, the source gives them in different places.

Take `CC(C)(C)OC(=O)NC1CCCN2C(=O)COc3cnccc3C3CCC(CC3)OCC12` (centres unmarked): the ring closure, isolated yield in data set [1] (from CC(C)(C)OC(=O)NC1CCCNC1COC1CCC(c2ccncc2OCC(=O)O)CC1, 13-membered ring, HATU/DIEA, MeCN, 0.22 mM, 2.0 h) is 23.4%.

`CC(C)(C)OC(=O)N[C@H]1CCCN2C(=O)CCCOc3ccccc3C3CCC(CC3)OC[C@@H]12` returned a ring closure, isolated yield in data set [1] (from CC(C)(C)OC(=O)N[C@H]1CCCN[C@H]1COC1CCC(c2ccccc2OCCCC(=O)O)CC1, 15-membered ring, HATU/DIEA, MeCN/DMF 8:1, 18.1 mM, 2.0 h) of 77.9%.

`CC(C)(C)OC(=O)N[C@H]1CCCN2C(=O)CCOc3ccccc3C3CCC(CC3)OC[C@@H]12`: in data set [2] (from CC(C)(C)OC(=O)N[C@H]1CCCN[C@H]1COC1CCC(c2ccccc2OCCC(=O)O)CC1, 14-membered ring, MeCN, 7.4 mM, 18.0 h), the ring closure, yield after HPLC is 80.3%.

`CC(C)(C)OC(=O)N[C@H]1CCCN2C(=O)COc3cccc(F)c3C3=CCC(CC3)OC[C@@H]12` (some centres unmarked) showed a ring closure, isolated yield in data set [1] (from CC(C)(C)OC(=O)N[C@H]1CCCN[C@H]1COC1CC=C(c2c(F)cccc2OCC(=O)O)CC1, 13-membered ring, HATU/DIEA, MeCN, 2.1 mM, 2.0 h) of 71%.

Turning to `CC(C)(C)OC(=O)N[C@H]1CCCN2C(=O)COc3nccnc3C3CCC(CC3)OC[C@@H]12`, in data set [1] (from CC(C)(C)OC(=O)N[C@H]1CCCN[C@H]1COC1CCC(c2nccnc2OCC(=O)O)CC1, 13-membered ring, HATU/DIEA, MeCN, 2.16 mM, 1.0 h), the ring closure, isolated yield came out at 42.1%.

With `CC(C)(C)OC(=O)N[C@H]1CCCN2C(=O)COc3nnccc3C3CCC(CC3)OC[C@@H]12`, the ring closure, isolated yield in data set [1] (from CC(C)(C)OC(=O)N[C@H]1CCCN[C@H]1COC1CCC(c2ccnnc2OCC(=O)O)CC1, 13-membered ring, HATU/DIEA, MeCN, 0.94 mM, 25.0 °C, 2.0 h) worked out at 76%.

Compound `COc1ccc(CNC2CCN3C(=O)C(F)(F)Oc4c(F)cc(F)cc4C4CCC(CC4)OCC23)cc1` (centres unmarked) had a ring closure, isolated yield in data set [1] (from COc1ccc(CNC2CCNC2COC2CCC(c3cc(F)cc(F)c3OC(F)(F)C(=O)O)CC2)cc1, 13-membered ring, HATU/diisopropylamine, DCM/MeCN 1:1, 18.5 mM, 3.0 h) of 39.3%.

As for `CS(=O)(=O)N[C@H]1CCCN2C(=O)COc3ccccc3C3CCC(CC3)OCC12` (some centres unmarked) [Compound 2], the response vs control in vivo at 3 mg/kg with Sprague-Dawley rats stood at 190%. In the data set on MDR1, the Papp A→B at 2 h, 3 μM was determined as 0.89 ×10⁻⁶ cm/s and the efflux ratio at 2 h, 3 μM was 39. Also, in data set [3], the hepatocyte CLint at 1 μM is 13 µL/min/1e6 cells. Further, in the data set with human hepatocytes, the “Extraction Ratio (ER)” value came to 0.67.

Turning to `CS(=O)(=O)N[C@H]1CCN2C(=O)COc3ccccc3C3CCC(CC3)OCC12` (some centres unmarked) [Compound 7], in the data set on Sprague-Dawley rats, the response vs control in vivo at 3 mg/kg stood at 165%. For the same compound, in the data set with MDR1, the Papp A→B at 2 h, 3 μM was 14 ×10⁻⁶ cm/s and the efflux ratio at 2 h, 3 μM is 2.2. Moreover, the hepatocyte CLint at 1 μM in data set [3] amounted to 24 µL/min/1e6 cells. In addition, the “Extraction Ratio (ER)” value with human hepatocytes is reported as 0.78.

For the compound `CS(=O)(=O)N[C@H]1CCCN2C(=O)COc3c(F)cc(F)cc3C3CCC(CC3)OCC12` (some centres unmarked) [Compound 12], the response vs control in vivo at 3 mg/kg in the data set on Sprague-Dawley rats stood at 236%. In the data set with MDR1, the Papp A→B at 2 h, 3 μM worked out at 2.3 ×10⁻⁶ cm/s and the efflux ratio at 2 h, 3 μM was determined as 6.2. Also, the hepatocyte CLint at 1 μM in data set [3] turned out to be 13 µL/min/1e6 cells. For the same compound, in the data set with human hepatocytes, the “Extraction Ratio (ER)” value is recorded as 0.66.

For `CS(=O)(=O)N[C@H]1CCCN2C(=O)COc3ncccc3C3CCC(CC3)OCC12` (some centres unmarked) [Compound 46], the response vs control in vivo at 3 mg/kg in the data set on Sprague-Dawley rats is 157%. For the same compound, in the data set on MDR1, the apparent permeability from apical to basolateral (Papp A→B) at 2 h, 3 μM is 0.31 ×10⁻⁶ cm/s and the efflux ratio at 2 h, 3 μM came to 58. Further, the hepatocyte CLint at 1 μM in data set [3] was 6.9 µL/min/1e6 cells. Further, the “Extraction Ratio (ER)” value in the data set with human hepatocytes stood at 0.51.

With `CS(=O)(=O)N[C@H]1CCCN2C(=O)COc3ccc(Cl)cc3C3CCC(CC3)OCC12` (some centres unmarked) [Compound 51], the response vs control in vivo at 3 mg/kg in the data set on Sprague-Dawley rats was determined as 166%. Further, in the data set on MDR1, the Papp A→B at 2 h, 3 μM is 0.59 ×10⁻⁶ cm/s and the efflux ratio at 2 h, 3 μM stood at 21. In data set [3], the hepatocyte CLint at 1 μM turned out to be 4.6 µL/min/1e6 cells. In addition, the “Extraction Ratio (ER)” value in the data set with human hepatocytes turned out to be 0.41.

On to `CS(=O)(=O)N[C@H]1CCCN2C(=O)COc3nccnc3C3CCC(CC3)OCC12` (some centres unmarked) [Compound 55], for which the response vs control in vivo at 3 mg/kg with Sprague-Dawley rats stood at 145%. For the same compound, in the data set on MDR1, the Papp A→B at 2 h, 3 μM turned out to be 0.092 ×10⁻⁶ cm/s and the efflux ratio at 2 h, 3 μM turned out to be 77. In addition, the hepatocyte CLint at 1 μM in data set [3] was less than 1.9 µL/min/1e6 cells. The “Extraction Ratio (ER)” value with human hepatocytes was less than 0.22.

Take “tert-butyl ((2^1S,2^4S,5^2R,5^3S)-6-oxo-3,11-dioxa-5(2,1)-piperidina-1(1,2)-benzena-2(1,4)-cyclohexanacycloundecaphane-5^3-yl)carbamate”: in data set [2] (16-membered ring, DMF/MeCN 1:2, 16.3 mM, 25.0 °C), the ring closure, yield after HPLC was 88.1%.
